Reference: US11325936B2, “Sialidase inhibitors and preparation thereof” (The Regents of the University of California, priority 2017, dated 2022)

Key:
PmST1 = PmST1 (Pasteurella multocida, UniProt Q15KI8); test: Sialidase inhibition assay (Example 4); type: biochemical; conditions: 0.1 mM of each inhibitor; substrate Neu5Acα2-3GalβpNP 0.3 mM; pH 5.5; read-out: Percentage inhibition (%) against PmST1
Description: (§1) The assay conditions varied for different sialidases as described below: SpNanA (0.0015 μg), NaOAc buffer (100 mM, pH 6.0); SpNanB (0.003 μg), NaOAc buffer (100 mM, pH 6.0); SpNanC (0.02 μg), MES buffer (100 mM, pH 6.5); AuSialidase (1.0 mU), NaOAc buffer (100 mM, pH 5.5); CpNanI (2.0 mU), MES buffer (100 mM, pH 5.0); CpNanH (0.5 mU), MES buffer (100 mM, pH 5.0); VcSialidase (1.5 mU), NaCl (150 mM), CaCl2) (10 mM), NaOAc buffer (100 mM, pH 5.5); PmST1 (34.4 μg), NaOAc buffer (100 mM, pH 5.5); BiNanH2, NaOAc buffer (100 mM, pH 5.0); hNEU2 (22.0 μg), MES buffer (100 mM, pH 5.0). The reactions were incubated for 30 min at 37° C., and were stopped by adding CAPS buffer (N-cyclohexyl-3-aminopropane sulfonic acid, 40 μL, 0.5 M, pH 10.5). The amount of the para-nitrophenolate formed was determined by measuring the A405 nm Of the reaction mixtures using a microplate reader.
(§2) The percentage inhibitions were determined using a concentration of 0.1 mM of each inhibitor, with reactions without inhibitors as controls. […] The values of IC50 were calculated by the software Grafit 5.0.

AuSialidase = molecular target: T1, AuSialidase (Paenarthrobacter ureafaciens, UniProt Q5W7Q2); test: Sialidase inhibition assay (Example 4); type: biochemical, Arthrobacter ureafaciens; conditions: pH 5.5, read-out: Percentage inhibition (%) against AuSialidase, 0.1 mM of each inhibitor, substrate Neu5Acα2-3GalβpNP 0.3 mM
T1 sequence (Q5W7Q2 39-990): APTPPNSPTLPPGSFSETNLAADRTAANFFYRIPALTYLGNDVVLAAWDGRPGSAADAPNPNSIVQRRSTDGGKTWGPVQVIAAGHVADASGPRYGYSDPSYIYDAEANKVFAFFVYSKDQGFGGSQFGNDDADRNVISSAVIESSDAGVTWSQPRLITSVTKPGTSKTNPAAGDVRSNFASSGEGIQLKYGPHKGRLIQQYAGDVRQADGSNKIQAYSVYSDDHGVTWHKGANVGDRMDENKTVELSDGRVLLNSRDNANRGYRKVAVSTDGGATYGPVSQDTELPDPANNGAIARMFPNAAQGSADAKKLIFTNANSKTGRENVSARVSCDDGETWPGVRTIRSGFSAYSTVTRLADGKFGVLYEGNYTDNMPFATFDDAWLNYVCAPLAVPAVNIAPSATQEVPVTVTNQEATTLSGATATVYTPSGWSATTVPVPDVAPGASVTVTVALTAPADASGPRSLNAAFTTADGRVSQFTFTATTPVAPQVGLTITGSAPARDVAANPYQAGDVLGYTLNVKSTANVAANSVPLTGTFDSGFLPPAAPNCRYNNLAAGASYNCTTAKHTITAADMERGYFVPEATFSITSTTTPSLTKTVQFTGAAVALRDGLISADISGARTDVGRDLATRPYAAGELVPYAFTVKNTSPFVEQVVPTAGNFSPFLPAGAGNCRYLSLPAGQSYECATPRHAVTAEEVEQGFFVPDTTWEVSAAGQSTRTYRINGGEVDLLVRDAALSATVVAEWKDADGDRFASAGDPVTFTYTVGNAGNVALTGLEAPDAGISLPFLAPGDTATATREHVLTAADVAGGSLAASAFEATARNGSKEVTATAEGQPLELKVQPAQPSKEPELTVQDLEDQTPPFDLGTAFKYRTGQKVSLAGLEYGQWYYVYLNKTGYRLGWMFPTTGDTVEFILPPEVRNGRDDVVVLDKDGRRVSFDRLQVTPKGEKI
Description: as §1, §2

CpNanH = CpNanH (Clostridium perfringens, UniProt P10481); test: biochemical; conditions: pH 5.0; read-out: Percentage inhibition (%) against CpNanH
Sequence of CpNanH (P10481 whole entry, looked up): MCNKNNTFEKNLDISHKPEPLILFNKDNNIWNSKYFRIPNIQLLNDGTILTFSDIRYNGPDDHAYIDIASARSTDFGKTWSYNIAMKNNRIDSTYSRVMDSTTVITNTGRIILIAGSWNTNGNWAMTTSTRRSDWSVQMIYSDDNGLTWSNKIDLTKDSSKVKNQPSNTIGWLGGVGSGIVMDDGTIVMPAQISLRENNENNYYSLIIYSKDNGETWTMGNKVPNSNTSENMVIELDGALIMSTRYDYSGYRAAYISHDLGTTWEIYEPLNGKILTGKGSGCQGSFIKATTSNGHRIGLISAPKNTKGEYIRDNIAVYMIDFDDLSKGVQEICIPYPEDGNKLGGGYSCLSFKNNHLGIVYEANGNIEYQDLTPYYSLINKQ

SpNanA = SpNanA (Streptococcus pneumoniae, UniProt P62575); test: Sialidase inhibition assay (Example 4); type: biochemical; conditions: for inhibition at 100 µM: pH 6, read-out: Percentage inhibition (%) against SpNanA, 0.1 mM of each inhibitor, substrate Neu5Acα2-3GalβpNP 0.3 mM, pH 6.0
Sequence of SpNanA (P62575 54-1006): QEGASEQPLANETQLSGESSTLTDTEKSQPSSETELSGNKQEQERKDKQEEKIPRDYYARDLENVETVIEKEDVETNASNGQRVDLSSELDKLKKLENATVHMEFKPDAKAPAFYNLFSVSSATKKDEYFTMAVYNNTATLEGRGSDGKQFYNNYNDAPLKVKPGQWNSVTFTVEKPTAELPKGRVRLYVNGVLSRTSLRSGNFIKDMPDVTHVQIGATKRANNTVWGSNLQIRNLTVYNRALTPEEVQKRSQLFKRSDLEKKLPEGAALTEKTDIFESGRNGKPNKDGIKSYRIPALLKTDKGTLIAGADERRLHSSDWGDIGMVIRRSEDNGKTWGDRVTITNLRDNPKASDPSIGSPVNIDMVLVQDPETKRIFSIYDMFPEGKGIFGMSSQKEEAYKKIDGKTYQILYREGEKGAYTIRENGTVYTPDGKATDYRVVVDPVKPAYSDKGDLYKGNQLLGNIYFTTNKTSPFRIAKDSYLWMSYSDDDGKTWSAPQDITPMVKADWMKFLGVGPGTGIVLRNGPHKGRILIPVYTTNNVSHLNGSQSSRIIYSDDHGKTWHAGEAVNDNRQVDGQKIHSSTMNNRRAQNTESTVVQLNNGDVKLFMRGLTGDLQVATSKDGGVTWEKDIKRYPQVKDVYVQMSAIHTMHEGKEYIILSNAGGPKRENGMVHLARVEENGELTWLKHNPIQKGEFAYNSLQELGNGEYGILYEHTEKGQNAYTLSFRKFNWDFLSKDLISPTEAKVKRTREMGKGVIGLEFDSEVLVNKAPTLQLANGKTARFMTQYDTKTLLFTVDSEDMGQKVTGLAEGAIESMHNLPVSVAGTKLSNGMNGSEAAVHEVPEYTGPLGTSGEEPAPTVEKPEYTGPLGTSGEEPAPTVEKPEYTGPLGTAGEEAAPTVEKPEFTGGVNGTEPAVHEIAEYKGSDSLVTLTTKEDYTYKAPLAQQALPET

BiNanH2 = BiNanH2 (Bifidobacterium longum subsp. infantis, UniProt A0ACD7UU12); test: Sialidase inhibition assay (Example 4); type: biochemical; conditions: pH 5, read-out: Percentage inhibition (%) against BiNanH2, 0.1 mM of each inhibitor, substrate Neu5Acα2-3GalβpNP 0.3 mM
Sequence of BiNanH2 (A0ACD7UU12 entry or part of it): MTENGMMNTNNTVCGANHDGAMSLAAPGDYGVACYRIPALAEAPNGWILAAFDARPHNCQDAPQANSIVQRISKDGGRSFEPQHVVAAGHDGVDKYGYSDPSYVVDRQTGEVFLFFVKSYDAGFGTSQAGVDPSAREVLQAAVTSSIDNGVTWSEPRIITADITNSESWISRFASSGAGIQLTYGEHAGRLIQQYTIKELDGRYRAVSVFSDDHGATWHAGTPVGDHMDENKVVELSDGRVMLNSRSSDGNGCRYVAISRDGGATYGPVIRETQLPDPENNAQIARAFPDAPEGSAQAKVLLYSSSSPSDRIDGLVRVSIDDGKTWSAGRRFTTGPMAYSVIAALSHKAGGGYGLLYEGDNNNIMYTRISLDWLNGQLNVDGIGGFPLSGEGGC

SpNanC = SpNanC (Streptococcus pneumoniae, UniProt A0A0H2UQE4); test: Sialidase inhibition assay (Example 4); type: biochemical; conditions: pH 6.5, read-out: Percentage inhibition (%) against SpNanC
Sequence of SpNanC (A0A0H2UQE4 entry or part of it): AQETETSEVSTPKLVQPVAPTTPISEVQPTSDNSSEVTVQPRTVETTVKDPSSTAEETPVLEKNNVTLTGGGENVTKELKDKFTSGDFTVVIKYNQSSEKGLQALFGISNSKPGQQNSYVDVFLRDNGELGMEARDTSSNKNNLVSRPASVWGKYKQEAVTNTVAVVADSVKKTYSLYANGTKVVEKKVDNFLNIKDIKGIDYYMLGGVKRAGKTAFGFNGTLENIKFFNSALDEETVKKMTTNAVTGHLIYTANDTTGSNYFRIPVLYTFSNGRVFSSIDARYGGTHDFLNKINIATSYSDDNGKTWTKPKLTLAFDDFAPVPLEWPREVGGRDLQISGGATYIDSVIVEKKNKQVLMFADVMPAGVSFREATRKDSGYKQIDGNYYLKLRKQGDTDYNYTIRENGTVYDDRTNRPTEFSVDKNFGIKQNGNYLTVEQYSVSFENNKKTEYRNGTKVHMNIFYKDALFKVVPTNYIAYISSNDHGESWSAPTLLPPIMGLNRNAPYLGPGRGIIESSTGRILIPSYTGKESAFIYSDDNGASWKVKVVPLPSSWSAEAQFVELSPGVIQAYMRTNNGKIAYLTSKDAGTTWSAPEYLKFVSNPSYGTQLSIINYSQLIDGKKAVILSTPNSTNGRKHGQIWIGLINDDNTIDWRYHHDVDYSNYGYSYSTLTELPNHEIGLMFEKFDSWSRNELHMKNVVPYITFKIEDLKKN

SpNanB = SpNanB (Streptococcus pneumoniae serotype 4, UniProt Q54727, E68D/K536E/K577E/N393D/S59P); test: Sialidase inhibition assay (Example 4); type: biochemical; conditions: pH 6, read-out: Percentage inhibition (%) against SpNanB
Sequence of SpNanB (Q54727 30-697 S59P/E68D/N393D/K536E/K577E): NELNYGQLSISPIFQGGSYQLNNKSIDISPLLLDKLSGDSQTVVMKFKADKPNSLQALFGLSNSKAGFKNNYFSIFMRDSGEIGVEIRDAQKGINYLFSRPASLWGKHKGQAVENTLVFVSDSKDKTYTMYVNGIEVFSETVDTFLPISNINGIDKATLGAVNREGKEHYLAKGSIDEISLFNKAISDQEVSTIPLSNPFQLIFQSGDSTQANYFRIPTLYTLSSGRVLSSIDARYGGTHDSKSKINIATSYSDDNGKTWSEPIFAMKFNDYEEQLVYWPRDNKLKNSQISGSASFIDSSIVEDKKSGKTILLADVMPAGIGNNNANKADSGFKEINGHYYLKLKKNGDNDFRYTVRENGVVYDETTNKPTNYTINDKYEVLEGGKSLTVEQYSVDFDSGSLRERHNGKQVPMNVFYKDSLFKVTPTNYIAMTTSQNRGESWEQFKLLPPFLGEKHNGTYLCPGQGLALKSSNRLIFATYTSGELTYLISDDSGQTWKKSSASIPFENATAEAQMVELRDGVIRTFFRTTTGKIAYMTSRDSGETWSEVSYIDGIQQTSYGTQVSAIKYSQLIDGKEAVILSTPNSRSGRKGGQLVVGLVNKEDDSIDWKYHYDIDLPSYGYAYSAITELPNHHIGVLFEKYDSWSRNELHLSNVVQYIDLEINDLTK

hNEU2 = hNEU2 (Homo sapiens, UniProt Q9Y3R4); test: Sialidase inhibition assay (Example 4); type: biochemical; conditions: pH 5, 0.1 mM of each inhibitor, substrate Neu5Acα2-3GalβpNP 0.3 mM, read-out: Percentage inhibition (%) against hNEU2
Sequence of hNEU2 (Q9Y3R4 whole entry): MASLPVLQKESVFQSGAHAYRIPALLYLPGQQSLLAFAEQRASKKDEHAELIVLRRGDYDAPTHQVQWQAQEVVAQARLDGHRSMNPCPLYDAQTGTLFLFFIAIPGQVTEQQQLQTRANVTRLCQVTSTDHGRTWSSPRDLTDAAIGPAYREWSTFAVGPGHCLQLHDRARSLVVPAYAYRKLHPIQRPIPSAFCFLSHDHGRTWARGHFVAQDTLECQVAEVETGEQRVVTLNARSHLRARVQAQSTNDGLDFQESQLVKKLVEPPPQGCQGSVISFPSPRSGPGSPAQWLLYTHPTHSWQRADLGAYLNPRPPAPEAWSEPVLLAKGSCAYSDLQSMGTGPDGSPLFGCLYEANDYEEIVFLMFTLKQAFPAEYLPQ

CpNanI = type: biochemical, Clostridium perfringens; conditions: 0.1 mM of each inhibitor; substrate Neu5Acα2-3GalβpNP 0.3 mM; pH 5.0
VcSialidase = VcSialidase (Vibrio cholerae serotype O1, UniProt P0C6E9); test: biochemical; conditions: pH 5.5, read-out: Percentage inhibition (%) against VcSialidase, 0.1 mM of each inhibitor, substrate Neu5Acα2-3GalβpNP 0.3 mM
Sequence of VcSialidase (P0C6E9 25-781): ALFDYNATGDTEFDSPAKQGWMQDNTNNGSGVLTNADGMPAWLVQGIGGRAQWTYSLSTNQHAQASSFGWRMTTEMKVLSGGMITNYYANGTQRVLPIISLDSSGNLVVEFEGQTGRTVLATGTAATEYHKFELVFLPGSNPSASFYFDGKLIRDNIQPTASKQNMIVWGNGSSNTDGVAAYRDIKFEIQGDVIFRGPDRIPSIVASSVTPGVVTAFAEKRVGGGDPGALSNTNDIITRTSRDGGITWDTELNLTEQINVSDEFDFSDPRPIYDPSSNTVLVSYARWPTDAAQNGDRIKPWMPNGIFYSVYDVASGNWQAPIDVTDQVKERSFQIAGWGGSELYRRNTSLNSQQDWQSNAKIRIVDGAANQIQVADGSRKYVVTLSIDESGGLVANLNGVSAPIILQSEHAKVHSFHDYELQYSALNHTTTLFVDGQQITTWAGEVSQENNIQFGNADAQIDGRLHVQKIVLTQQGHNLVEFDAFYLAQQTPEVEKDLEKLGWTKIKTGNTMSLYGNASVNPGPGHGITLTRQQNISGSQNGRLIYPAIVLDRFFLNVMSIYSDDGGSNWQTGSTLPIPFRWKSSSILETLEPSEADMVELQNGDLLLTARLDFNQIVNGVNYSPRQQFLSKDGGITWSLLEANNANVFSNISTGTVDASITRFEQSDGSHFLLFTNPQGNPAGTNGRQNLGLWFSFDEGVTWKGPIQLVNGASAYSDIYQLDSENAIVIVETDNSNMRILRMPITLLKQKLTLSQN

Sequence of PmST1 (Q15KI8 entry or part of it): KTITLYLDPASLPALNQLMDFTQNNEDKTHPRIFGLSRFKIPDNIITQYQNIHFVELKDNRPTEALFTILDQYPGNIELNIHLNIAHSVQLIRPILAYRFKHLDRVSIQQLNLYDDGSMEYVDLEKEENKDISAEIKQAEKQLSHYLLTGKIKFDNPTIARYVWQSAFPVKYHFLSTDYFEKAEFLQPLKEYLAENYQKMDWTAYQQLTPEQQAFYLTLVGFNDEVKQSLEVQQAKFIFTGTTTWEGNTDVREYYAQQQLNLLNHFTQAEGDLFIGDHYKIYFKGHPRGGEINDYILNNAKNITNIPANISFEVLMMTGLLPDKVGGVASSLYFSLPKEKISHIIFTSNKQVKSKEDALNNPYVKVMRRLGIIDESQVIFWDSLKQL

SMILES | inhibition at 100 µM (PmST1) [%] | inhibition at 100 µM (AuSialidase) [%] | inhibition at 100 µM (CpNanH) [%] | inhibition at 100 µM (SpNanA) [%] | inhibition at 100 µM (BiNanH2) [%] | inhibition at 100 µM (SpNanC) [%] | inhibition at 100 µM (SpNanB) [%] | inhibition at 100 µM (hNEU2) [%] | Percentage inhibition (%) against CpNanI (CpNanI) [%] | IC50 (SpNanA) [µM] | inhibition at 100 µM (VcSialidase) [%]
O=C(CO)N[C@@H]1C(O)C=C(C(=O)O)OC1[C@H](O)[C@H](O)CO (stereo partly drawn) [compound 7, 2,6-Anhydro-3,5-dideoxy-5-glycolylamido-D-glycero-D-galacto-non-2-enonic acid] | 2 | 47 | 9 | 14 | 19 | 17 | 4 | > 50 | 20 | – | –
CC(=O)NC[C@@H](O)[C@@H](O)[C@@H]1OC(C(=O)O)=C[C@H](O)[C@H]1NC(C)=O [compound 9, 5,9-Diacetamido-2,6-anhydro-3,5,9-trideoxy-D-glycero-D-galacto-non-2-enonic acid] | 19 | 60 | 1 | 86 | 69 | 8 | 4 | 27 | 63 | 11 ± 0.2 | 45
CC(=O)N[C@@H]1C(O)C=C(C(=O)O)OC1C[C@H](O)CO (stereo partly drawn) [compound 10, 5-Acetamido-2,6-anhydro-3,5,7-trideoxy-D-glycero-D-galacto-non-2-enonic acid] | 15 | 85 | 11 | 89 | 30 | 5 | 2 | 42 | 57 | 10.7 ± 0.4 | 40
CCCCC(=O)NC[C@@H](O)[C@@H](O)[C@@H]1OC(C(=O)O)=C[C@H](O)[C@H]1NC(C)=O [compound 12, 5-Acetamido-2,6-anhydro-3,5,9-trideoxy-9-valeramido-D-glycero-D-galacto-non-2-enonic acid] | 8 | 40 | 3 | 85 | 71 | 11 | 3 | 19 | 40 | 10.5 ± 0.5 | 43
CC(=O)N[C@@H]1C(O)C=C(C(=O)O)OC1[C@H](O)[C@H](O)CNC(=O)C1CC1 (stereo partly drawn) [compound 13, 5-Acetamido-2,6-anhydro-9-cyclopropylcarboxamido-3,5,9-trideoxy-D-glycero-D-galacto-non-2-enonic acid] | 3 | 61 | 7 | 91 | 78 | 16 | 2 | 17 | 51 | 6.8 ± 0.2 | 40
O=C(Cc1ccccc1)N[C@H]1[C@H]([C@H](O)[C@H](O)CO)OC(C(=O)O)=C[C@@H]1O [compound 15, 2,6-Anhydro-3,5-dideoxy-5-phenylacetamido-D-glycero-D-galacto-non-2-enonic acid] | 8 | 13 | 8 | 2 | 17 | 12 | 5 | 81 | 19 | – | 5
